Data as given in patent US20100015050A1, “PEG AND TARGETING LIGANDS ON NANOPARTICLE SURFACE” (WAYNE STATE UNIVERSITY, priority 2006, published 2010).

Key:
[1] = tested on: vascular smooth muscle cells; assay: MTS cytotoxicity of dexamethasone formulations; type: cell-based; settings: nanoparticles 600 μg/mL or drug solution 25 μg/mL, single dose
Protocol: Nanoparticle formulations with different drug release rates were formulated by emulsion solvent evaporation technique. […] Data represented as mean±SD, n=3. The two formulations were investigated for cytotoxicity in vascular smooth muscle cells. Cells were plated in 96-well plates at a density of 5000 cells/well/0.1 mL. A nanoparticle suspension prepared in regular serum-containing growth medium (600 μg/mL, 0.1 mL) was added to each well. Drug solution in growth medium (25 μg/mL) was also added to some of the wells. Untreated cells were used as controls. Cytotoxicity was determined using a standard MTS assay. The medium was changed on day 2 and every other day thereafter, and no further dose of drug was added. Data as mean±SD, n=6. […] Data represented as mean±SEM, n=3. Cells were plated at 100,000 cells/well/2 ml in 6-well plates. Drug encapsulated in nanoparticles (600 μg of nanoparticles/ml, 2 ml) or in solution (25 μg/ml, 2 ml) was added to each well. Medium was changed on day 2 and every other day thereafter, and no further dose of the drug was added.

[2] = tested on: NCl/ADR-RES cells; assay: MTS cytotoxicity in drug-resistant, P-gp overexpressing cells; type: cell-based; settings: paclitaxel 100 nM in solution or in nanoparticles, no verapamil
Protocol: (§1) Drug sensitive (MCF-7) and drug-resistant (NCl/ADR-RES) cells were plated in 96-well plates at a density of 5000 cells/well/0.1 mL. Cells were then treated with paclitaxel (Pac) in solution (100 nM) or equivalent in nanoparticles (NP). […] Untreated cells and cells treated with empty nanoparticles were used as controls. Cytotoxicity was followed using a standard MTS assay (see Methods). […] Data as mean±SD, n=6 wells. * P<0.05.
NCl/ADR-RES cells were plated in 96-well plates at a density of 5000 cells/well/0.1 mL. Cells were then treated with paclitaxel (Pac, 100 nM) in nanoparticles (NP). […] Untreated cells were used as controls. Cytotoxicity was followed as a function of time using a standard MTS assay. The medium was changed on day 2 and every other day thereafter, and no further dose of drug was added.
Drug-resistant (NCl/ADR-RES) cells were plated in 96-well plates at a density of 5000 cells/well/0.1 mL. Cells were then treated with dual-agent nanoparticles releasing 0.3 ng/day/8 μg siRNA and 7 ng/day/8 μg paclitaxel. Cells treated with non-targeted (scrambled) siRNA and untreated cells were used as controls. Cytotoxicity was followed using a standard MTS assay. The medium was changed on day 2 and every other day thereafter, and no further dose of drug was added. Data as mean±SD, n=6 wells. * P<0.05 compared to controls. […]

[3] = tested on: MCF-7 cells; assay: MTS cytotoxicity of paclitaxel treatments in drug-sensitive cells; type: cell-based; settings: paclitaxel 100 nM in solution or equivalent in nanoparticles; compared to untreated cells
Protocol: as §1
The inventors initially investigated the efficacy of paclitaxel encapsulated in nanoparticles in drug-sensitive MCF-7 cells.

[4] = tested on: MCF-7 xenografts; assay: tumor growth and survival after single-dose paclitaxel treatment; type: in vivo; settings: 400 μg paclitaxel/animal, nude mice
Description: Effect of a single-dose paclitaxel treatment on tumor growth was investigated in nude mice bearing MCF-7 xenografts.

[5] = tested on: NCl/ADR-RES cells; assay: nanoparticle uptake/retention and paclitaxel accumulation in cells (HPLC); type: cell-based; settings: inhibition of P-gp by verapamil
Protocol: NCl/ADR-RES cells were plated in 24-well plates at a density of 50,000 cells/well/1 mL. […] The medium was changed on day 2 and every other day thereafter, and no further dose of drug was added. Cells were harvested at different time intervals, and lysed using cell culture lysis reagent (Promega).
In order to verify that differences in drug accumulation are not due to differences in nanoparticle uptake/retention in cells, the inventors labeled nanoparticles with 6-coumarin, and followed the cell uptake and retention of nanoparticles and paclitaxel in NCl/ADR-RES cells.

C[C@@H]1C[C@H]2[C@@H]3CCC4=CC(=O)C=C[C@]4(C)[C@@]3(F)[C@@H](O)C[C@]2(C)[C@@]1(O)C(=O)CO [dexamethasone]
cytotoxicity / inhibition of cell proliferation [1]: transient cytotoxicity | duration of cytotoxicity [1]: up to 5 days

CC(=O)O[C@H]1C(=O)[C@@]2(C)[C@H]([C@H](OC(=O)c3ccccc3)[C@]3(O)C[C@H](OC(=O)[C@H](O)[C@@H](NC(=O)c4ccccc4)c4ccccc4)C(C)=C1C3(C)C)[C@]1(OC(C)=O)CO[C@@H]1C[C@@H]2O [paclitaxel]
effect on the viability of cells [2]: no significant effect on the viability of cells | inhibition of cell proliferation [3]: marginal but significant (P<0.05) inhibition of cell proliferation | effect on tumor growth [4]: only marginally effective

COc1ccc(CCN(C)CCCC(C#N)(c2ccc(OC)c(OC)c2)C(C)C)cc1OC (stereo not drawn) [verapamil]
effect on uptake or retention of nanoparticles [5]: did not significantly increase the uptake or retention of nanoparticles
